As a reminder, the IC50 is the concentration needed to halve the response being measured.

This note sets out measurements from patent publication US12103937B2, “Substituted pyridines and pyridazines as TYK2 inhibitors” (Sudo Biosciences Limited, priority 2021, dated 2024).

The test system of experiment [1] is HEK-Blue IL-2 reporter cells, IL-2-stimulated STAT5 SEAP reporter. Description: HEK-Blue IL-2 reporter assay (SEAP) for determining selectivity. The format is cell-based. The settings on record: 4 ng/mL human recombinant IL-2, SEAP readout, read-out: IL-2 (SEAP selectivity, IC50 class). The protocol:
(§1) HEK-Blue™ IL-2 and IFNγ reporter cells with a stably-integrated cytokine receptor and STAT5 or STAT1 express STAT-inducible secreted embryonic alkaline phosphatase (SEAP) reporter gene upon cytokine stimulation. These cells were plated in DMEM (Gibco) containing 10% heat-inactivated FBS (Gibco) and 100 U/mL PenStrep (Gibco) at 37° C. under 5% CO2 conditions for 20-22 hours. The cells were then pretreated with serially diluted test compounds for 60 min prior to stimulation with either 4 ng/mL human recombinant IL-2 (Miltenyl Biotech) or 50 ng/mL human recombinant IFNγ (InvivoGen) for 24 hours. SEAP induction was measured using the QUANTI-Blue™ Solution (InvivoGen) according to the manufacturer's instructions.
For orientation: Reporter assays use an easily measured gene product as a stand-in for the process of interest.

Experiment [2] concerns HEK-Blue IFNγ reporter cells, IFNγ-stimulated STAT1 SEAP reporter. Description: HEK-Blue IFNγ reporter assay (SEAP) for determining selectivity. It counts as cell-based. The settings on record: Homo sapiens, 50 ng/mL human recombinant IFNγ, SEAP readout, read-out: IFN-γ (SEAP selectivity, IC50 class). The protocol:
as §1

Bounds are passed on as bounds.

In the case of `[2H]C([2H])([2H])NC(=O)c1nnc(NC(=O)[C@H]2C[C@H]2F)cc1Nc1nccc2c1N(C)Cc1nn(C)nc1-2` [Compound 115, 4-((2,5-dimethyl-4,5-dihydro-2H-[1,2,3]triazolo[4,5-c][1,7]naphthyridin-6-yl)amino)-6-((1R,2R)-2-fluorocyclopropane-1-carboxamido)-N-(methyl-d3)pyridazine-3-carboxamide], the IC50 in experiment [1] was in the range of 300 to 1000 nM; in experiment [2], 30 to 300 nM.

For the compound `[2H]C([2H])([2H])NC(=O)c1nnc(NC(=O)C2CC2)cc1Nc1nccc2c1N(C)[C@@H](C)c1nc(C)nn1-2` [Compound 112, (S)-6-(cyclopropanecarboxamido)-N-(methyl-d3)-4-((2,4,5-trimethyl-4,5-dihydropyrido[3,4-e][1,2,4]triazolo[1,5-a]pyrazin-6-yl)amino)pyridazine-3-carboxamide], the IC50 in experiment [1] and in experiment [2] was greater than 1000 nM each time. Consider `[2H]C([2H])([2H])NC(=O)c1nnc(NC(=O)C2CC2)cc1Nc1nccc2c1N(C)[C@H](C([2H])([2H])[2H])c1nn(C)nc1-2` [Compound 114, (R)-6-(cyclopropanecarboxamido)-4-((2,5-dimethyl-4-(methyl-d3)-4,5-dihydro-2H-[1,2,3]triazolo[4,5-c][1,7]naphthyridin-6-yl)amino)-N-(methyl-d3)pyridazine-3-carboxamide], for which the IC50 in experiment [1] is greater than 1000 nM.
